Assays:
[1] = molecular target: T1, 5-HT1A receptor (Mus musculus, UniProt Q64264); test: [35S]GTPγS binding to mice hippocampal membranes; type: biochemical
T1 construct: The hippocampi of mice were dissected and homogenized in 5 volumes of ice-cold buffer; from tissue; host or cells: mouse hippocampus membranes
T1 sequence (Q64264 1-421): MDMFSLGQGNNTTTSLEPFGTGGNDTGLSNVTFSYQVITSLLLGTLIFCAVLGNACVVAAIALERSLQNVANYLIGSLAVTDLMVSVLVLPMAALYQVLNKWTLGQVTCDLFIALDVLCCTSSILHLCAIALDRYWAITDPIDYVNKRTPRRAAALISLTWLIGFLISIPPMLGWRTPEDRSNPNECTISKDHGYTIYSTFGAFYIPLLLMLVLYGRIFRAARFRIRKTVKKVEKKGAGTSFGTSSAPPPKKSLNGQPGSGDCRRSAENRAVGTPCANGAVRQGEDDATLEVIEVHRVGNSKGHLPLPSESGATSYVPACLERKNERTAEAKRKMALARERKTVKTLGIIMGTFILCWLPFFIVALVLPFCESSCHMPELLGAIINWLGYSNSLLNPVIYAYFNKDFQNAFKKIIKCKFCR
Method: The hippocampi of mice were dissected and homogenized in 5 volumes of ice-cold buffer (25 mM Tris-HCl, 0.5 mM dithiothreitol, and 0.5 mM EGTA, pH 7.4). The homogenate was centrifuged (1,000 × g for 5 min at 4 °C) and the resultant supernatant was removed. The remaining pellet was resuspended in buffer, homogenized, and centrifuged. The two supernatants obtained were combined and centrifuged at […] at 4 °C and the pellets were resuspended in membrane preparation buffer. The volumes were adjusted prior to the determination of protein concentration by Bradford method[56] and stored at −80 °C until required. […] The reactions were initiated by the addition of 25 μl [^35S]-GTPγS, followed by a 20 min incubation at 20 °C. The reactions were terminated by rapid filtration. The filters were placed in liquid scintillation cocktail in counting vials. The liquid scintillation spectroscopy was used to measure the radioactivity bound to the filter paper after 10 hour.

[2] = tested on: mice; test: FS test after AMPT, PCPA, PRAZ or WAY pretreatment (mechanism of antidepressant-like effect of D1); type: in vivo, Male Swiss mice
Method: Mice were pretreated (i.p) with saline solution or AMPT 100 mg/kg (catecholamine depletor) 4 h prior to the oral administration of vehicle 10 mL/kg or D1 5 mg/kg. […] In a separate experiment, pretreatment (i.p) of mice with saline solution or PCPA 100 mg/kg (serotonin depletor) for four consecutive days prior to oral administration of vehicle or D1 5 mg/kg was used to investigate effect of serotonin depletion on antidepressant-like activity of this OAD. […] In all the four experiments, oral administration of vehicle or D1 5 mg/kg was followed by FS test (60 min interval between p.o. treatment and behavioural testing).

C=CC(=O)O[C@H]1CC[C@]2(C)[C@H]3CC=C4[C@@H]5CC(C)(C)CC[C@]5(C(=O)O)CC[C@@]4(C)[C@]3(C)CC[C@H]2C1(C)C [D1, Oleanolic acid acrylate]
EC50 ([1]; mice hippocampal membranes, read-out: Agonist potency (pEC50 ± SEM) (converted)): 794 nM
Emax ([1]; percentage of that produced by 10 μM (+)8-OH-DPAT, read-out: Intrinsic activity (Emax ± SEM in %)): 26 ± 2%
effect of AMPT pretreatment on antidepressant-like effect (swimming time) ([2]; AMPT 100 mg/kg i.p. + D1 5 mg/kg p.o. versus SAL + D1, p > 0.05): did not attenuate
effect of PCPA pretreatment on antidepressant-like effect (swimming time) ([2]; PCPA 100 mg/kg i.p. four days + D1 5 mg/kg p.o. versus SAL + D1, p > 0.05): did not block
effect of PRAZ pretreatment on antidepressant-like effect (swimming time) ([2]; PRAZ 1 mg/kg i.p. + D1 5 mg/kg p.o. versus SAL + D1, p > 0.05): did not block
swimming time in the FS test ([2]; SAL + D1 5 mg/kg p.o. versus SAL + Vehicle, p < 0.05): increased the swimming time
effect of WAY pretreatment on antidepressant-like effect (swimming time) ([2]; WAY 0.3 mg/kg i.p. + D1 5 mg/kg p.o. versus SAL + D1, p < 0.05): significant blockade

Reference: paper PMC4894409 (Scientific Reports, 2015)
